Experimental data as given in ChEMBL document CHEMBL1154017, “Functionalization of the A ring of pyridoacridine as a route toward greater structural diversity. Synthesis of an octacyclic analogue of eilatin” (Bioorg Med Chem Lett, 2009).
Activity calls are given as the source filed them. No cut-off for these calls is given here.

Assays:
[1] = Cytostatic activity against human HT29-AK cells; format: functional
[2] = tested on: A-431; assay: Cytostatic activity against human A431 cells; format: functional, cell-based
[3] = Dissociation constant, pKa at physiological pH; format: physicochemical
[4] = Solubility in water; format: physicochemical; conditions: buffer
[5] = Partition coefficient, log P of the compound; format: physicochemical; conditions: octanol/water
[6] = tested on: HT29-AK; assay: Cytotoxic activity against human HT29-AK cells assessed as cell survival at 5 uM; format: functional, cell-based
[7] = tested on: A-431; assay: Cytotoxic activity against human A431 cells assessed as cell survival at 5 uM; format: functional; conditions: read-out: Activity

Row | IC50 [2] | pKa [3] | solubility [4] | logP [5] | Compound | IC60 [1] | Activity [6] | viability at 5 µM [7]
1 | 2100 nM | 5.3 | Soluble | 2.62 | CCOc1ccc2c3c(nccc13)-c1ccc(N)cc1N2 | 1350 nM | – | –
2 | – | 4.5 | – | 3.69 | Clc1ccc2c(c1)Nc1cccc3ccnc-2c13 | – | – | –
3 | – | – | – | – | CCOc1ccc2c3c(nccc13)-c1ccc3nc4c5cccnc5c5ncccc5c4nc3c1N2 | – | inactive | 85%
